From patent US20230181614A1, “ADMINISTRATION OF CITICOLINE TO IMPROVE COGNITIVE PERFORMANCE, ATTENTIONAL PERFORMANCE, AND MOTOR FUNCTION” (KYOWA HAKKO BIO CO., LTD., priority 2014, published 2023)
Several values for one entry are separate records, joined by “and”; a condition that tells them apart may be missing. Identical values can stand only once.

What was measured:
Format in all cases: in vivo, human
[1] = system: Healthy subjects, ages 13-18; experiment: Conner-Wells Self-Report Scale (L) (Conners); details: for Conners Score, Mean: V3-V1
Text: Study participants were screened by telephone prior to study enrollment. Healthy subjects, ages 13-18, with no significant medical conditions and no history of co-morbid psychiatric disorder, current Axis I or II diagnosis, or previous participation in a pharmacotherapeutic trial, were selected. Use of any psychotropic medication or any previous head injury resulting in loss of consciousness for 5 or more minutes were used as exclusion criteria. While no participant met criteria for a neuropsychiatric disorder at enrollment, clinical assessments were still completed throughout the study to evaluate changes in mood state. In addition, self-reports of sleep habits, lifestyle, and exercise routines were also administered at baseline as well as at each study visit to assess changes in health habits during study participation. Following the completion of Visit 1 assessment, participants were given their 28-day supply of citicoline (250 mg or 500 mg) or placebo, which was randomly assigned. They were instructed to take one capsule a day every day for the next 28 days. Visit 2 occurred fourteen days after Visit 1. At Visit 2, the remaining study pills were counted and participant dosage calendars were checked to ensure compliance with the protocol. Additional neuropsychological measures and clinical assessments were administered during this visit. Participants returned for Visit 3 fourteen days later, on the 28th day of their study participation. The pill bottle and the dosage calendar were collected from each participant. Urine and blood were again obtained. Participants also participated in similar clinical and neuropsychological testing and clinical measures that were given during visit 1. The Conners is a self-report questionnaire assessing a range or problem behaviors in children, including family problems, emotional problems, conduct problems, cognitive problems/inattention, anger control problems, hyperactivity, ADHD Index, and DSM-IV symptom subscales. The scale was administered at the first and third visits to assess presence or absence of a range of problem behaviors.

[2] = system: Healthy subjects, ages 13-18; experiment: Trail Making Test; parameters: Trail Making B V1 (Mean) / Trail Making B V3 (Mean) / Trail Making B-A V1 (Mean) / Trail Making B-A V3 (Mean) / V3-V1 Trail Making B (Mean) / V3-V1 Trail Making B-A (Mean): unit not given here; details: for Trail Making A V1 (Mean) / Trail Making B V1 (Mean) / Trail Making B-A V1 (Mean): Visit 1; for Trail Making A V3 (Mean) / Trail Making B V3 (Mean) / Trail Making B-A V3 (Mean): Visit 3; for V3-V1 Trail Making A (Mean) / V3-V1 Trail Making B (Mean) / V3-V1 Trail Making B-A (Mean): visit difference score V3-V1
Text: Study participants were screened by telephone prior to study enrollment. Healthy subjects, ages 13-18, with no significant medical conditions and no history of co-morbid psychiatric disorder, current Axis I or II diagnosis, or previous participation in a pharmacotherapeutic trial, were selected. Use of any psychotropic medication or any previous head injury resulting in loss of consciousness for 5 or more minutes were used as exclusion criteria. While no participant met criteria for a neuropsychiatric disorder at enrollment, clinical assessments were still completed throughout the study to evaluate changes in mood state. In addition, self-reports of sleep habits, lifestyle, and exercise routines were also administered at baseline as well as at each study visit to assess changes in health habits during study participation.
Following the completion of Visit 1 assessment, participants were given their 28-day supply of citicoline (250 mg or 500 mg) or placebo, which was randomly assigned. They were instructed to take one capsule a day every day for the next 28 days.
Visit 2 occurred fourteen days after Visit 1. At Visit 2, the remaining study pills were counted and participant dosage calendars were checked to ensure compliance with the protocol. Additional neuropsychological measures and clinical assessments were administered during this visit.
Participants returned for Visit 3 fourteen days later, on the 28th day of their study participation. The pill bottle and the dosage calendar were collected from each participant. Urine and blood were again obtained. Participants also participated in similar clinical and neuropsychological testing and clinical measures that were given during visit 1.
The Trail Making Test is designed to measure visual conceptual and visuomotor tracking, as well as maintenance of cognitive set. On Trial A the participant must draw lines to connect consecutively numbered circles on one work sheet (1-2-3-4 etc.). For Part B they must connect numbered and lettered circles by alternating between the two sequences (i.e., 1-A-2-B etc.). Part B is the more sensitive of the two tests -- particularly to frontal-lobe dysfunction -- as scores on this section are indicative of the participant’s ability to shift sets (numeric to alphabetical order) and process concurrent stimuli. This test was administered on all three visits.

[3] = system: Healthy subjects, ages 13-18; experiment: Monitoring of Side Effects Scale (MOSES); details: for V2 MOSES (Mean): Visit 2; for V3 MOSES (Mean): Visit 3; for MOSES V3-V2 Score (Mean): visit difference score V3-V2; for MOSES difference scores, between groups: visit 1 to visit 3 (so in the source); for MOSES, within-group change: visit 2 to 3
Text: Study participants were screened by telephone prior to study enrollment. Healthy subjects, ages 13-18, with no significant medical conditions and no history of co-morbid psychiatric disorder, current Axis I or II diagnosis, or previous participation in a pharmacotherapeutic trial, were selected. Use of any psychotropic medication or any previous head injury resulting in loss of consciousness for 5 or more minutes were used as exclusion criteria. While no participant met criteria for a neuropsychiatric disorder at enrollment, clinical assessments were still completed throughout the study to evaluate changes in mood state. In addition, self-reports of sleep habits, lifestyle, and exercise routines were also administered at baseline as well as at each study visit to assess changes in health habits during study participation. Following the completion of Visit 1 assessment, participants were given their 28-day supply of citicoline (250 mg or 500 mg) or placebo, which was randomly assigned. They were instructed to take one capsule a day every day for the next 28 days. Visit 2 occurred fourteen days after Visit 1. At Visit 2, the remaining study pills were counted and participant dosage calendars were checked to ensure compliance with the protocol. Additional neuropsychological measures and clinical assessments were administered during this visit. Participants returned for Visit 3 fourteen days later, on the 28th day of their study participation. The pill bottle and the dosage calendar were collected from each participant. Urine and blood were again obtained. Participants also participated in similar clinical and neuropsychological testing and clinical measures that were given during visit 1. The MOSES is a scale designed to assess common symptoms or adverse events associated with psychopharmacological medications. This scale is divided into nine body areas representing a typical physical examination. The interviewer asks subjects whether they have each symptom on the measure and, if so, asks them to report the level of severity of the symptom on a scale from 0 (not present) to 4 (severe). […]

SMILES: C[N+](C)(C)CCOP(=O)(O)OP(=O)([O-])OC[C@H]1O[C@@H](n2ccc(N)nc2=O)[C@H](O)[C@@H]1O [citicoline, Cytidine 5′-diphosphocholine]
- Conners, Mean ([1]; 250 mg/day, V1 (baseline)): 49.26
- Conners, Mean ([1]; 250 mg/day, V3 (day 28)): 49.52 and 46.52
- Conners Score, Mean ([1]; 250 mg/day): -2.74
- Conners, Mean ([1]; 500 mg/day, V1 (baseline)): 43.83
- Conners, Mean ([1]; 500 mg/day, V3 (day 28)): 39.54
- Conners Score, Mean ([1]; 500 mg/day): -4.29
- Trail Making A V1 (Mean) ([2]; 250 mg/day group): 11.16
- Trail Making B V1 (Mean) ([2]; 250 mg/day group): 29.15
- Trail Making B-A V1 (Mean) ([2]; 250 mg/day group): 17.99
- Trail Making A V3 (Mean) ([2]; 250 mg/day group): 9.37
- Trail Making B V3 (Mean) ([2]; 250 mg/day group): 18.40
- Trail Making B-A V3 (Mean) ([2]; 250 mg/day group): 9.00
- V3-V1 Trail Making A (Mean) ([2]; 250 mg/day group): -1.80
- V3-V1 Trail Making B (Mean) ([2]; 250 mg/day group): -10.75
- V3-V1 Trail Making B-A (Mean) ([2]; 250 mg/day group): -8.99
- Trail Making A V1 (Mean) ([2]; 500 mg/day group): 12.89
- Trail Making B V1 (Mean) ([2]; 500 mg/day group): 28.60
- Trail Making B-A V1 (Mean) ([2]; 500 mg/day group): 15.71
- Trail Making A V3 (Mean) ([2]; 500 mg/day group): 9.28
- Trail Making B V3 (Mean) ([2]; 500 mg/day group): 23.02
- Trail Making B-A V3 (Mean) ([2]; 500 mg/day group): 13.73
- V3-V1 Trail Making A (Mean) ([2]; 500 mg/day group): -3.60
- V3-V1 Trail Making B (Mean) ([2]; 500 mg/day group): -5.58
- V3-V1 Trail Making B-A (Mean) ([2]; 500 mg/day group): -1.98
- V2 MOSES (Mean) ([3]; 250 mg/day group): 1.30
- V3 MOSES (Mean) ([3]; 250 mg/day group): 1.04
- MOSES V3-V2 Score (Mean) ([3]; 250 mg/day group): -0.26
- MOSES difference scores, between groups ([3]; 250 mg/day vs 500 mg/day, p=0.64): no significant differences
- MOSES, between groups ([3]; 250 mg/day vs 500 mg/day, visit 3, p=0.11): no significant difference
- MOSES difference scores, between groups ([3]; 250 mg/day vs Placebo, p=0.70): no significant differences
- MOSES, between groups ([3]; 250 mg/day vs Placebo, visit 3, p=0.21): no significant difference
- MOSES, within-group change ([3]; 250 mg/day, p=0.34): no significant differences
- V2 MOSES (Mean) ([3]; 500 mg/day group): 0.81
- V3 MOSES (Mean) ([3]; 500 mg/day group): 0.38
- MOSES V3-V2 Score (Mean) ([3]; 500 mg/day group): -0.43
- MOSES, within-group change ([3]; 500 mg/day, p=0.07): trend toward significant differences
- MOSES difference scores, between groups ([3]; Placebo vs 500 mg/day, p=0.30): no significant differences
- MOSES, between groups ([3]; Placebo vs 500 mg/day, visit 3, p=0.85): No significant difference
- MOSES difference scores, three groups ([3]; p=0.66): no significant differences
- MOSES, overall analysis ([3]; three groups, visit 3, p=0.23): no significant differences
